Source: US6617350B2, “Inhibitors of aspartyl protease” (priority 1999, dated 2003)
pIC50, pKi: −log10 of the molar value. Like-named read-outs stand apart in the source and are kept apart here.

Legend:
HIV-1 protease = HIV-1 protease (Human immunodeficiency virus type 1 group M subtype B, UniProt P04585); assay: biochemical
HIV-1 (strain IIIB) = assay: microbe, parasite or virus in culture; format: cell-based; settings: Human immunodeficiency virus 1, IIIB
[1] = Table 12, HIV-1 protease, read-out: Ki
[2] = MT4, Table 12, anti-viral potency in MT-4 cells, read-out: IC50
[3] = MT4, antiviral assay, MT4 cells infected with HIV-1 (strain IIIB), class symbol, read-out: IC50 (activity range)
[4] = MT4, Table 13, MT-4 cell based assay, class symbol, read-out: IC50

Row | Compound | pIC50 (HIV-1 (strain IIIB); [3]) | pKi (HIV-1 protease; [1]) | also measured
1 | CCC(CCC1(C)OCCO1)CN(C[C@@H](O)[C@H](Cc1ccccc1)NC(=O)OC(C)(C)C)S(=O)(=O)c1ccc(OC)cc1 (mixture of isomers) [Compound 202, tert-ButylN-((1S,2R)-1-benzyl-3-[2-ethyl-4-(2-methyl-1,3-dioxolan-2-yl)butyl][(4-methoxyphenyl)sulfonyl]amino-2-hydroxypropyl)carbamate] |  | 8.00 to 9.00 | pIC50 (HIV-1 (strain IIIB); [2]): < 6.00
2 | CCOC(=O)CNC(=O)NCCCC(C)(C)CN(CC(O)C(Cc1ccccc1)NC(=O)OC1COC2OCCC12)S(=O)(=O)c1ccc(OC)cc1 (mixture of isomers) [Compound 216, Ethyl (3S,4R)-1-[(3R,3aS,6aR)hexahydrofuro[2,3-b]furan-3-yloxy]-3-benzyl-4-hydroxy-6-[(4-methoxyphenyl)sulfonyl]-8,8-dimethyl-1,13-dioxo-2,6,12,14-tetraazahexadecan-16-oate and Ethyl (3S,4R)-1-[(3S,3aR,6aS)hexahydrofuro[2,3-b]furan-3-yloxy]-3-benzyl-4-hydroxy-6-[(4-methoxyphenyl)sulfonyl]-8,8-dimethyl-1,13-dioxo-2,6,12,14-tetraazahexadecan-16-oate] |  | > 9.00 | pIC50 (HIV-1 (strain IIIB); [2]): ≥ 7.00
3 | COc1ccc(S(=O)(=O)N(CC(C)CCC#N)CC(O)C(Cc2ccccc2)NC(=O)OC(C)(C)C)cc1 [Compound 2, ter-Butyl N-((1S,2R)-1-benzyl-3-[(2RS)-(4-cyano-2-methylbutyl)][(4-methoxyphenyl)sulfonyl]amino-2-hydroxypropyl)carbamate] |  | > 9.00 | pIC50 (HIV-1 (strain IIIB); [2]): < 6.00
4 | CC(C)(CCC#N)CN(C[C@@H](O)[C@H](Cc1ccccc1)NC(=O)OC(C)(C)C)S(=O)(=O)c1cccc(N)c1 [Compound 5, tert-ButylN-((1S,2R)-3-[(3-aminophenyl)sulfonyl](4-cyano-2,2-dimethylbutyl)amino-1-benzyl-2-hydroxypropyl)carbamate] |  | > 9.00 | pIC50 (HIV-1 (strain IIIB); [2]): < 6.00
5 | CC(C)(CCC#N)CN(C[C@@H](O)[C@H](Cc1ccccc1)NC(=O)OC(C)(C)C)S(=O)(=O)c1ccc2c(c1)OCO2 [Compound 6, {(1S,2R)-3-[(Benzo[1,3]dioxole-5-sulfonyl)-(4-cyano-2,2-dimethyl-butyl)-amino]-1-benzyl-2-hydroxy-propyl}-carbamic acid tert-butyl ester] |  | > 9.00 | 
6 | COc1ccc(S(=O)(=O)N(CC(C)CCC#N)CC(O)C(Cc2ccccc2)NC(=O)OC2CCOC2)cc1 [Compound 8, (3S)-Tetrahydro-3-furanyl N-((1S,2R)-1-benzyl-3-[(2RS)-4-cyano-2-methyl][(4-methoxyphenyl)sulfonyl]amino-2-hydroxypropyl)carbamate] |  | > 9.00 | pIC50 (HIV-1 (strain IIIB); [2]): ≥ 7.00
7 | CCNc1cccc(S(=O)(=O)N(CC(O)C(Cc2ccccc2)NC(=O)OC2COC3OCCC23)CC(C)(C)CCC#N)c1 [Compound 44, {(1S,2R)-3-[(3-N-ethylaminophenyl)sulfonyl]-(4-cyano-2,2-dimethyl-butyl)-amino]-1-benzyl-2-hydroxy-propyl}carbamic acid (3R,3aS,6aR)hexahydro-furo[2,3-b]furan-3-yl ester] |  | > 9.00 | 
8 | COc1ccc(S(=O)(=O)N(CCC#N)C[C@@H](O)[C@H](Cc2ccccc2)NC(=O)OC(C)(C)C)cc1 [Compound 123] |  | 7.00 to 8.00 | 
9 | CC(C)(C)OC(=O)N[C@@H](Cc1ccccc1)[C@H](O)CN(CCC#N)S(=O)(=O)c1cccc(N)c1 [Compound 127] |  | 7.00 to 8.00 | 
10 | COc1ccc(S(=O)(=O)N(CC(O)[C@H](Cc2ccccc2)NC(=O)OC(C)(C)C)CC(C)(C)CCOC(N)=O)cc1 (stereo partly drawn) [Compound 234, ter-Butyl N-((1S,2R)-1-benzyl-3-(4-carbamoyloxy-2,2-dimethylbutyl)[(4-methoxyphenyl)sulfonyl]amino-2-hydroxypropyl)carbamate] |  | > 9.00 | 
11 | COc1ccc(S(=O)(=O)N(CCC(C)CCC=O)C[C@@H](O)[C@H](Cc2ccccc2)NC(=O)OC(C)(C)C)cc1 (stereo partly drawn) [Compound 277] |  | 8.00 to 9.00 | 
12 | CC(CCC=O)CCN(C[C@@H](O)[C@H](Cc1ccccc1)NC(=O)OC(C)(C)C)S(=O)(=O)c1ccc2c(c1)OCO2 (stereo partly drawn) [Compound 278] |  | 8.00 to 9.00 | 
13 | COc1ccc(S(=O)(=O)N(CCC(C)=O)C[C@@H](O)[C@H](Cc2ccccc2)NC(=O)OC(C)(C)C)cc1 [Compound 279] |  | 7.00 to 8.00 | 
14 | CC(C)(CCCCN)CN(C[C@@H](O)[C@H](Cc1ccccc1)NC(=O)O[C@H]1CCOC1)S(=O)(=O)c1ccc2c(c1)OCO2 [Compound 295, (3S)-tetrahydro-3-furanyl N-(1S,2R)-3-[(1,3-benzodioxol-5-ylsulfonyl)(6-amino-2,2-dimethylhexyl)amino]-1-benzyl-2-hydroxypropylcarbamate] | 6.30 to 7.00 |  | 
15 | CC(C)(CCCCN)CN(CC(O)[C@H](Cc1ccccc1)NC(=O)OC1CCOC1)S(=O)(=O)c1ccc(N)cc1 (stereo partly drawn) [Compound 296, (3S)-tetrahydro-3-furanyl N-(1S,2R)-3-[(4-aminophenylsulfonyl)(6-amino-2,2-dimethylhexyl)amino]-1-benzyl-2-hydroxypropylcarbamate] | 6.30 to 7.00 |  | 
16 | CC(C)(CCCCN)CN(CC(O)[C@H](Cc1ccccc1)NC(=O)OC1COCOC1)S(=O)(=O)c1ccc2c(c1)OCO2 (stereo partly drawn) [Compound 297, [1,3]-dioxan-5-yl N-(1S,2R)-3-[(1,3-benzodioxol-5-ylsulfonyl)(6-amino-2,2-dimethylhexyl)amino]-1-benzyl-2-hydroxypropylcarbamate] | 6.30 to 7.00 |  | 
17 | CC(C)(CCNC(=O)C(C)(C)C)CN(C[C@@H](O)[C@H](Cc1ccccc1)NC(=O)O[C@H]1CO[C@H]2OCC[C@H]21)S(=O)(=O)c1ccc2c(c1)OCO2 [Compound 374] |  |  | pIC50 (HIV-1 (strain IIIB); [4]): 8.00 to 9.00
18 | CC(C)(CCNC(=O)C1CCC1)CN(C[C@@H](O)[C@H](Cc1ccccc1)NC(=O)O[C@H]1CO[C@H]2OCC[C@H]21)S(=O)(=O)c1ccc2c(c1)OCO2 [Compound 375] |  |  | pIC50 (HIV-1 (strain IIIB); [4]): 8.00 to 9.00
19 | CC(C)CC(=O)NCCC(C)(C)CN(C[C@@H](O)[C@H](Cc1ccccc1)NC(=O)O[C@H]1CO[C@H]2OCC[C@H]21)S(=O)(=O)c1ccc2c(c1)OCO2 [Compound 376] |  |  | pIC50 (HIV-1 (strain IIIB); [4]): 8.00 to 9.00
20 | CC(C)(CCNC(=O)c1ccccc1)CN(C[C@@H](O)[C@H](Cc1ccccc1)NC(=O)O[C@H]1CO[C@H]2OCC[C@H]21)S(=O)(=O)c1ccc2c(c1)OCO2 [Compound 377] |  |  | pIC50 (HIV-1 (strain IIIB); [4]): 8.00 to 9.00
21 | CC(C)(CCNC(=O)c1ccco1)CN(C[C@@H](O)[C@H](Cc1ccccc1)NC(=O)O[C@H]1CO[C@H]2OCC[C@H]21)S(=O)(=O)c1ccc2c(c1)OCO2 [Compound 378] |  |  | pIC50 (HIV-1 (strain IIIB); [4]): 8.00 to 9.00
22 | CC(C)(CCNC(=O)c1cccs1)CN(C[C@@H](O)[C@H](Cc1ccccc1)NC(=O)O[C@H]1CO[C@H]2OCC[C@H]21)S(=O)(=O)c1ccc2c(c1)OCO2 [Compound 379] |  |  | pIC50 (HIV-1 (strain IIIB); [4]): 8.00 to 9.00
23 | CNC(=O)NCC(=O)NCCC(C)(C)CN(CC(O)C(Cc1ccccc1)NC(=O)OC1COC2OCCC12)S(=O)(=O)c1ccc2c(c1)OCO2 (stereo not drawn) [Compound 529] |  |  | pKi (HIV-1 protease): > 9.00
24 | CNC(=O)NCC(=O)NCCCC(C)(C)CN(CC(O)C(Cc1ccccc1)NC(=O)OC1COC2OCCC12)S(=O)(=O)c1ccc2c(c1)OCO2 (stereo not drawn) [Compound 536] |  |  | pKi (HIV-1 protease): > 9.00
25 | CNC(=O)NCC(=O)NCCCCC(C)(C)CN(CC(O)C(Cc1ccccc1)NC(=O)OC1COC2OCCC12)S(=O)(=O)c1ccc2c(c1)OCO2 (stereo not drawn) [Compound 543] |  |  | pKi (HIV-1 protease): > 9.00
26 | CN(C)C(=NC#N)NCCC(C)(C)CN(CC(O)C(Cc1ccccc1)NC(=O)OC1COC2OCCC12)S(=O)(=O)c1ccc2c(c1)OCO2 (stereo not drawn) [Compound 563] | 6.30 to 7.00 |  | 
27 | CC(C)CN(CC(O)C(Cc1ccccc1)NC(=O)OC1CCOC1)S(=O)(=O)c1ccc(N)cc1 [Compound A, 4-amino-N-((2 syn, 3S)-2-hydroxy-4-phenyl-3-((S)-tetrahydrofuran-3-yloxycarbonylamino)-butyl)-N-isobutyl-benzenesulfonamide, reference compound] |  |  | pIC50 (HIV-1 (strain IIIB); MT4, MT-4 cells, comparison compound, read-out: IC50 in the MT-4 cell based assay): 7.10; pIC50 (HIV-1 (strain IIIB); MT4, Table 13, MT-4 cell based assay, numeric value, comparison compound, read-out: IC50): 7.10

Now from value to molecule, other results behind:

Row | pIC50 (HIV-1 (strain IIIB); [3]) | Compound | pKi (HIV-1 protease; [1]) | also measured
28 | 6.30 to 7.00 | CC(C)(CCNC(=O)CCC1CCCC1)CN(C[C@@H](O)[C@H](Cc1ccccc1)NC(=O)O[C@H]1CO[C@H]2OCC[C@H]21)S(=O)(=O)c1ccc2c(c1)OCO2 [Compound 402] |  | 
29 | 6.30 to 7.00 | CC(C)(CCNC(=O)CN)CN(CC(O)C(Cc1ccccc1)NC(=O)OC1COC2OCCC12)S(=O)(=O)c1ccc2c(c1)OCO2 [Compound 520, (3R,3aS,6aR)hexahydrofuro[2,3-b]furan-3-yl N-(1S,2R)-3-[(4-[(amino)acetylamino]-2,2-dimethylbutyl)(1,3-benzodioxol-5-ylsulfonyl)amino]-1-benzyl-2-hydroxypropylcarbamate] |  | 
30 | 6.30 to 7.00 | CC(=O)NCC(=O)NCCC(C)(C)CN(CC(O)C(Cc1ccccc1)NC(=O)OC1COC2OCCC12)S(=O)(=O)c1ccc2c(c1)OCO2 (stereo not drawn) [Compound 523] |  | 
31 | 6.30 to 7.00 | CN(C)C(=O)NCC(=O)NCCC(C)(C)CN(CC(O)C(Cc1ccccc1)NC(=O)OC1COC2OCCC12)S(=O)(=O)c1ccc2c(c1)OCO2 (stereo not drawn) [Compound 526] |  | 
32 | 6.30 to 7.00 | COCC(=O)NCC(=O)NCCC(C)(C)CN(CC(O)C(Cc1ccccc1)NC(=O)OC1COC2OCCC12)S(=O)(=O)c1ccc2c(c1)OCO2 (stereo not drawn) [Compound 527] |  | 
33 | 6.30 to 7.00 | CC(C)(CCNC(=O)CNS(C)(=O)=O)CN(CC(O)C(Cc1ccccc1)NC(=O)OC1COC2OCCC12)S(=O)(=O)c1ccc2c(c1)OCO2 (stereo not drawn) [Compound 528] |  | 
34 | 6.30 to 7.00 | CN(C)C(=O)NCC(=O)NCCCCC(C)(C)CN(CC(O)C(Cc1ccccc1)NC(=O)OC1COC2OCCC12)S(=O)(=O)c1ccc2c(c1)OCO2 (stereo not drawn) [Compound 540] |  | 
35 | 6.30 to 7.00 | CC(C)(CCCCNC(=O)CNS(C)(=O)=O)CN(CC(O)C(Cc1ccccc1)NC(=O)OC1COC2OCCC12)S(=O)(=O)c1ccc2c(c1)OCO2 (stereo not drawn) [Compound 542] |  | 
36 | 6.30 to 7.00 | CC(C)(CCOC(=O)NO)CN(CC(O)C(Cc1ccccc1)NC(=O)OC1COC2OCCC12)S(=O)(=O)c1ccc2c(c1)OCO2 (stereo not drawn) [Compound 605] |  | 
